# Test results as given in patent publication US12122802B2, “D-allose crystal and production method thereof” (MATSUTANI CHEMICAL INDUSTRY CO., LTD., priority 2019, dated 2024).
# Assays:
# Assay type in all cases: physicochemical
# [1] = aspect ratio of crystals from microscopic picture (Digital microscope VHX-5000, 50x)
# From the text: The “anhydrous D-allose crystals” of the present invention have an extremely large average particle size as described above and are not in a fine needle form, having a characteristic aspect ratio of the crystal. In the present invention, the aspect ratio refers to the ratio of the long diameter to the short diameter of a crystal (short diameter: minimum length of lines passing through the center of gravity of the plane shape of a crystal, long diameter: maximum length of a crystal measured orthogonal to the short diameter). In the present specification, the aspect ratio in a numerical range from A to B (A and B: arbitrary numbers) means that all of the aspect ratios of a specified number (preferably at least 10, for example 10) of crystal particles randomly selected are within the numerical range. Example of random selection of crystal particles includes a method comprising taking a microscopic picture of crystals at 20× to 50× magnification and, from the crystals on the diagonal line drawn from the upper left to the lower right of the microscopic picture taken, selecting 10 crystals with a full body shown in order from the upper left on the diagonal line. Specifically, the aspect ratio is preferably 1.0 to 10.0, more preferably 2.0 to 8.0, still more preferably 2.0 to 7.0. Next, the aspect ratio of the anhydrous D-allose crystals of the present invention was examined. Specifically, a microscopic picture of each of the anhydrous D-allose crystals obtained in the previous Test Nos. 1 to 5, 7 to 10 and 12 were taken using “Digital microscope VHX-5000” manufactured by KEYENCE Corporation (50×magnification). Among the crystals on the diagonal line drawn from the upper left to the lower right of the microscopic picture taken, 10 crystals with a full picture shown were selected in order from the upper left and then the long diameter and the short diameter of each crystal were measured for calculation of the aspect ratio (Long diameter/Short diameter, wherein short diameter refers to minimum length of lines passing through the center of gravity of the plane shape of a crystal, and long diameter refers to maximum length of a crystal measured orthogonal to the short diameter). The minimum value of the aspect ratio was 1.1 and the maximum value was 9.6 (Table 9).
# [2] = particle size distribution by laser diffraction (Mastersizer 3000, dry dispersion unit Aero S); conditions: average of 5 measurements, dispersion pressure 1.0 bar
# From the text: The melting point (Tm) in the DSC refers to the melting start temperature of the endothermic peak obtained by DSC measurement (temperature at the extrapolated intersection of the base line and the maximum slope line of the endothermic peak), and the melting enthalpy (ΔH) refers to the area of the endothermic peak (ASTM D3418-15, Standard Test Method for Transition Temperatures and Enthalpies of Fusion and Crystallization of Polymers by Differential Scanning calorimetry). Further, in the present invention, the average particle size refers to the volume-based average particle size d[4,3], which is usually measured with a laser diffraction particle size distribution analyzer.
# Next, the particle size distribution of the anhydrous D-allose crystals of the present invention was examined. Specifically, the anhydrous D-allose crystals obtained in the previous Test Nos. 1 to 5, 7 to 10 and 12, were subjected to measurement of particle size distribution under the measurement conditions shown in Table 7 using “Mastersizer 3000” and a “dry dispersion unit Aero S” manufactured by Malvern Instruments. More specifically, the measurement was repeated 5 times, and the average value of the 5 times measurements was used. No great variability was seen among the 5 times measurement values. The particle size distribution was expressed on a volume basis, and the volume-based average particle size d[4,3] and standard deviation σ were recorded. Also, the coefficient of variation CV=σ/d[4,3] was calculated in order to relatively evaluate the variation in the particle size distribution.
# [3] = repose angle measured by powder tester PT-E (fluidity of anhydrous D-allose crystals); conditions: for Repose angle (degrees): anhydrous crystals of Test Nos. 1 to 12, hydrous crystals dried with evaporator (30° C., 20 hPa (abs), about 2 hours), average of three directions
# Method: The fluidity of the anhydrous D-allose crystals obtained by drying the hydrous crystals obtained in each of Tests Nos. 1 to 12 with an evaporator (30° C., 20 hPa (abs), about 2 hours) as described above was evaluated by the repose angle measured by a powder tester PT-E (manufactured by Hosokawa Micron Corporation). Specifically, a sample was dropped and deposited on a disk, and the inclination angle was measured from three directions to obtain an average value. From the average value, the degree of fluidity was evaluated according to Table 1 in the Japanese Pharmacopoeia, 17th edition, Reference Information G2 physical property-related “Powder Fluidity” (same as the so-called Carr's fluidity index table, shown as Table 4).
# In order to measure the water content in the crystals obtained by each of the drying methods, drying under reduced pressure under conditions at 70° C. for 18 hours was performed to calculate the water content in the crystals from the weight loss through the drying under reduced pressure. The repose angle was measured by the method described above to determine the degree of fluidity. The yield rate was calculated by the following expression. Yield rate (%)=(D/C)×100 [Expression 4]
structure (smiles),measurement,setting,value
"O=C[C@H](O)[C@H](O)[C@H](O)[C@H](O)CO [Test No. 1, D-allose]",Aspect ratio (Long diameter/Short diameter),"[1]; crystal ① of 10 selected, listed as 1",3.5
same,Aspect ratio (Long diameter/Short diameter),"[1]; crystal ② of 10 selected, listed as 1",3.4
same,Aspect ratio (Long diameter/Short diameter),"[1]; crystal ③ of 10 selected, listed as 1",4.1
same,Aspect ratio (Long diameter/Short diameter),"[1]; crystal ④ of 10 selected, listed as 1",4.4
same,Aspect ratio (Long diameter/Short diameter),"[1]; crystal ⑤ of 10 selected, listed as 1",4.5
same,Aspect ratio (Long diameter/Short diameter),"[1]; crystal ⑥ of 10 selected, listed as 1",2.2
same,Aspect ratio (Long diameter/Short diameter),"[1]; crystal ⑦ of 10 selected, listed as 1",4.3
same,Aspect ratio (Long diameter/Short diameter),"[1]; crystal ⑧ of 10 selected, listed as 1",3.6
same,Aspect ratio (Long diameter/Short diameter),"[1]; crystal ⑨ of 10 selected, listed as 1",3.5
same,Aspect ratio (Long diameter/Short diameter),"[1]; crystal ⑩ of 10 selected, listed as 1",4.1
same,"d [4, 3] (volume-based average particle size)",[2]; listed as 1,472 μm
same,Repose angle (degrees),[3]; listed as 1,43.0 degrees
"O=C[C@H](O)[C@H](O)[C@H](O)[C@H](O)CO [Test No. 2, D-allose]",Aspect ratio (Long diameter/Short diameter),"[1]; crystal ① of 10 selected, listed as 2",2.9
same,Aspect ratio (Long diameter/Short diameter),"[1]; crystal ② of 10 selected, listed as 2",3.0
same,Aspect ratio (Long diameter/Short diameter),"[1]; crystal ③ of 10 selected, listed as 2",3.5
same,Aspect ratio (Long diameter/Short diameter),"[1]; crystal ④ of 10 selected, listed as 2",3.5
same,Aspect ratio (Long diameter/Short diameter),"[1]; crystal ⑤ of 10 selected, listed as 2",3.0
same,Aspect ratio (Long diameter/Short diameter),"[1]; crystal ⑥ of 10 selected, listed as 2",5.5
same,Aspect ratio (Long diameter/Short diameter),"[1]; crystal ⑦ of 10 selected, listed as 2",2.6
same,Aspect ratio (Long diameter/Short diameter),"[1]; crystal ⑧ of 10 selected, listed as 2",4.9
same,Aspect ratio (Long diameter/Short diameter),"[1]; crystal ⑨ of 10 selected, listed as 2",3.0
same,Aspect ratio (Long diameter/Short diameter),"[1]; crystal ⑩ of 10 selected, listed as 2",4.1
same,"d [4, 3] (volume-based average particle size)",[2]; listed as 2,563 μm
same,Repose angle (degrees),[3]; listed as 2,42.7 degrees
"O=C[C@H](O)[C@H](O)[C@H](O)[C@H](O)CO [Test No. 3, D-allose]",Aspect ratio (Long diameter/Short diameter),"[1]; crystal ① of 10 selected, listed as 3",2.5
same,Aspect ratio (Long diameter/Short diameter),"[1]; crystal ② of 10 selected, listed as 3",5.4
same,Aspect ratio (Long diameter/Short diameter),"[1]; crystal ③ of 10 selected, listed as 3",3.9
same,Aspect ratio (Long diameter/Short diameter),"[1]; crystal ④ of 10 selected, listed as 3",6.2
same,Aspect ratio (Long diameter/Short diameter),"[1]; crystal ⑤ of 10 selected, listed as 3",4.5
same,Aspect ratio (Long diameter/Short diameter),"[1]; crystal ⑥ of 10 selected, listed as 3",4.3
same,Aspect ratio (Long diameter/Short diameter),"[1]; crystal ⑦ of 10 selected, listed as 3",3.0
same,Aspect ratio (Long diameter/Short diameter),"[1]; crystal ⑧ of 10 selected, listed as 3",4.7
same,Aspect ratio (Long diameter/Short diameter),"[1]; crystal ⑨ of 10 selected, listed as 3",6.1
same,Aspect ratio (Long diameter/Short diameter),"[1]; crystal ⑩ of 10 selected, listed as 3",1.5
same,"d [4, 3] (volume-based average particle size)",[2]; listed as 3,450 μm
same,Repose angle (degrees),[3]; listed as 3,42.0 degrees
"O=C[C@H](O)[C@H](O)[C@H](O)[C@H](O)CO [Test No. 4, D-allose]",Aspect ratio (Long diameter/Short diameter),"[1]; crystal ① of 10 selected, listed as 4",4.3
same,Aspect ratio (Long diameter/Short diameter),"[1]; crystal ② of 10 selected, listed as 4",4.0
same,Aspect ratio (Long diameter/Short diameter),"[1]; crystal ③ of 10 selected, listed as 4",4.2
same,Aspect ratio (Long diameter/Short diameter),"[1]; crystal ④ of 10 selected, listed as 4",2.0
same,Aspect ratio (Long diameter/Short diameter),"[1]; crystal ⑤ of 10 selected, listed as 4",6.0
same,Aspect ratio (Long diameter/Short diameter),"[1]; crystal ⑥ of 10 selected, listed as 4",1.1
same,Aspect ratio (Long diameter/Short diameter),"[1]; crystal ⑦ of 10 selected, listed as 4",3.9
same,Aspect ratio (Long diameter/Short diameter),"[1]; crystal ⑧ of 10 selected, listed as 4",8.1
same,Aspect ratio (Long diameter/Short diameter),"[1]; crystal ⑨ of 10 selected, listed as 4",3.8
same,Aspect ratio (Long diameter/Short diameter),"[1]; crystal ⑩ of 10 selected, listed as 4",4.1
same,"d [4, 3] (volume-based average particle size)",[2]; listed as 4,588 μm
same,Repose angle (degrees),[3]; listed as 4,42.3 degrees
"O=C[C@H](O)[C@H](O)[C@H](O)[C@H](O)CO [Test No. 5, D-allose]",Aspect ratio (Long diameter/Short diameter),"[1]; crystal ① of 10 selected, listed as 5",1.1
same,Aspect ratio (Long diameter/Short diameter),"[1]; crystal ② of 10 selected, listed as 5",2.7
same,Aspect ratio (Long diameter/Short diameter),"[1]; crystal ③ of 10 selected, listed as 5",3.2
same,Aspect ratio (Long diameter/Short diameter),"[1]; crystal ④ of 10 selected, listed as 5",2.9
same,Aspect ratio (Long diameter/Short diameter),"[1]; crystal ⑤ of 10 selected, listed as 5",4.7
same,Aspect ratio (Long diameter/Short diameter),"[1]; crystal ⑥ of 10 selected, listed as 5",3.0
same,Aspect ratio (Long diameter/Short diameter),"[1]; crystal ⑦ of 10 selected, listed as 5",4.9
same,Aspect ratio (Long diameter/Short diameter),"[1]; crystal ⑧ of 10 selected, listed as 5",4.1
same,Aspect ratio (Long diameter/Short diameter),"[1]; crystal ⑨ of 10 selected, listed as 5",1.6
same,Aspect ratio (Long diameter/Short diameter),"[1]; crystal ⑩ of 10 selected, listed as 5",3.8
same,"d [4, 3] (volume-based average particle size)",[2]; listed as 5,498 μm
same,Repose angle (degrees),[3]; listed as 5,45.7 degrees
"O=C[C@H](O)[C@H](O)[C@H](O)[C@H](O)CO [Test No. 7, D-allose]",Aspect ratio (Long diameter/Short diameter),"[1]; crystal ① of 10 selected, listed as 7",7.2
same,Aspect ratio (Long diameter/Short diameter),"[1]; crystal ② of 10 selected, listed as 7",1.7
same,Aspect ratio (Long diameter/Short diameter),"[1]; crystal ③ of 10 selected, listed as 7",5.2
same,Aspect ratio (Long diameter/Short diameter),"[1]; crystal ④ of 10 selected, listed as 7",5.5
same,Aspect ratio (Long diameter/Short diameter),"[1]; crystal ⑤ of 10 selected, listed as 7",2.5
same,Aspect ratio (Long diameter/Short diameter),"[1]; crystal ⑥ of 10 selected, listed as 7",4.1
same,Aspect ratio (Long diameter/Short diameter),"[1]; crystal ⑦ of 10 selected, listed as 7",4.3
same,Aspect ratio (Long diameter/Short diameter),"[1]; crystal ⑧ of 10 selected, listed as 7",4.9
same,Aspect ratio (Long diameter/Short diameter),"[1]; crystal ⑨ of 10 selected, listed as 7",3.5
same,Aspect ratio (Long diameter/Short diameter),"[1]; crystal ⑩ of 10 selected, listed as 7",2.0
same,"d [4, 3] (volume-based average particle size)",[2]; listed as 7,549 μm
same,Repose angle (degrees),[3]; listed as 7,41.0 degrees
same,Degree of fluidity,"[3]; anhydrous crystals of Test Nos. 1 to 12, evaluated from repose angle according to Table 4",Passable (41~45)
